Test [1] deals with wild-type HCT-116 cells. Nature of the test: Cell proliferation (MTS), wild-type HCT-116. It counts as cell-based. Particulars: Homo sapiens, 240 h; wild-type HCT-116, 10 days with compound, MTS reading; read-out: IC50 HCT116 WT. A digest of the protocol:
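Wild-type HCT-116 cells were seeded at 100 cells/well in McCoy's 5A/10% FBS. From day 1 they were treated with compound in 3-fold dilutions (initial 20 µM, 8 points) for 10 days at 37° C. Proliferation was read by MTS on day 11, and IC50 was obtained from a four-parameter logistic fit.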

For test [2], the system named is MTAP^-/- HCT-116 cells. Kind of test: Cell proliferation (MTS), MTAP-/- HCT-116. It counts as cell-based, human. To be noted: for Selectivity: HCT116 WT IC50 relative to HCT116 MTAP-/- IC50; for pIC50: Homo sapiens, 240 h, MTAP-/- HCT-116, 10 days with compound, MTS reading, read-out: IC50 HCT116 MTAP-/-. An outline of the steps:
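MTAP-/- (CRISPR/Cas9 biallelic knockout) or wild-type HCT-116 cells seeded at 100 cells/well, treated next day with 8-point 3-fold dilutions (top 20 µM) for 10 days at 37 °C, 5% CO2. Viability read by MTS; IC50 from four-parameter logistic fit of inhibition rate vs log concentration.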

pIC50: −log10 of the molar value.

Turning to `CN(C(=O)c1cc2c(cc1Cl)nc(N)c1cnn(C)c12)[C@@H]1COc2cc(C#Cc3ccnn3C)ccc21` [Compound 53A, (S)-4-amino-7-chloro-N,1-dimethyl-N-(6-((1-methyl-1H-pyrazol-5-yl)ethynyl)-2,3-dihydrobenzofuran-3-yl)-1H-pyrazolo[4,3-c]quinoline-8-carboxamide], in test [1], the pIC50 is 7.35. Also, in test [2], the Selectivity amounted to 45 and the pIC50 was 9.00.

In the case of `Cc1nn(C)cc1C#Cc1ccc2c(c1)OC[C@H]2N(C)C(=O)c1ccc2nc(N)c3cnn(C)c3c2c1` [Compound 49A, (S)-4-amino-N-(6-((1,3-dimethyl-1H-pyrazol-4-yl)ethynyl)-2,3-dihydrobenzofuran-3-yl)-N,1-dimethyl-1H-pyrazolo[4,3-c]quinoline-8-carboxamide], the pIC50 in test [1] was 6.42. Further, in test [2], the Selectivity is 210 and the pIC50 was 8.74.

`CN(C(=O)c1cc2c(cc1F)nc(N)c1cnn(C)c12)[C@@H]1COc2cc(C#Cc3cnn(C4CCC4)c3)ccc21` [Compound 89A, (S)-4-amino-N-(6-((1-cyclobutyl-1H-pyrazol-4-yl)ethynyl)-2,3-dihydrobenzofuran-3-yl)-7-fluoro-N,1-dimethyl-1H-pyrazolo [4,3-c] quinoline-8-carboxamide]: the pIC50 in test [1] was 6.58. Besides, in test [2], the Selectivity was found to be 88 and the pIC50 is 8.52.

For `CC(C)n1cc(C#Cc2ccc3c(c2)OC[C@H]3N(C)C(=O)c2ccc3nc(N)c4cnn(C)c4c3c2)cn1` [Compound 19A, (S)-4-amino-N-(6-((1-isopropyl-1H-pyrazol-4-yl)ethynyl)-2,3-dihydrobenzofuran-3-yl)-N,1-dimethyl-1H-pyrazolo[4,3-c]quinoline-8-carboxamide], the pIC50 in test [1] was 5.89. Moreover, in test [2], the Selectivity worked out at 149 and the pIC50 was 8.06.

With `CCN(C(=O)c1cc2c(cc1F)nc(N)c1cnn(C)c12)C1COc2cc(C#Cc3cnn(C)c3)ccc21` (stereo not drawn) [Compound 27, 4-amino-N-ethyl-7-fluoro-1-methyl-N-(6-((1-methyl-1H-pyrazol-4-yl)ethynyl)-2,3-dihydrobenzofuran-3-yl)-1H-pyrazolo[4,3-c]quinoline-8-carboxamide], the pIC50 in test [1] is 6.73. Besides, in test [2], the Selectivity is on record as 58 and the pIC50 is 8.49.

In the case of `CN(C(=O)c1cc2c(cc1F)nc(N)c1cnn(C)c12)C1COc2cc(C#Cc3cnn(C4CC4)c3)ccc21` (stereo not drawn) [Compound 12, 4-amino-N-(6-((1-cyclopropyl-1H-pyrazol-4-yl)ethynyl)-2,3-dihydrobenzofuran-3-yl)-7-fluoro-N,1-dimethyl-1H-pyrazolo[4,3-c]quinoline-8-carboxamide], the pIC50 was 6.19 in test [1] and 8.10 in test [2]. Also, in test [2], the Selectivity is given as 81.

For the molecule `CCn1cc(C#Cc2ccc3c(c2)OC[C@H]3N(C)C(=O)c2ccc3nc(N)c4cnn(C)c4c3c2)cn1` [Compound 20A, (S)-4-amino-N-(6-((1-ethyl-1H-pyrazol-4-yl)ethynyl)-2,3-dihydrobenzofuran-3-yl)-N,1-dimethyl-1H-pyrazolo[4,3-c]quinoline-8-carboxamide], in test [1], the pIC50 is 5.98. For the same molecule, in test [2], the Selectivity is reported as 170 and the pIC50 was 8.21.

Take `CN(C(=O)c1cc2c(cc1F)nc(N)c1cnn(C)c12)[C@@H]1COc2cc(C#Cc3cccnc3)ccc21` [Compound 48A, (S)-4-amino-7-fluoro-N,1-dimethyl-N-(6-(pyridin-3-ylethynyl)-2,3-dihydrobenzof uran-3-yl)-1H-pyrazolo[4,3-c]quinoline-8-carboxamide]: the pIC50 in test [1] is 6.85. In addition, in test [2], the Selectivity turned out to be 71 and the pIC50 is 8.70.

As to `CN(C(=O)c1cc2c3c(c(N)nc2cc1Cl)COC3)C1COCc2cc(C#Cc3cnn(C4CC4)c3)ccc21` (stereo not drawn) [Compound 87, 4-amino-7-chloro-N-(7-((1-cyclopropyl-1H-pyrazol-4-yl)ethynyl)isochroman-4-yl) -N-methyl-1,3-dihydrofuro[3,4-c]quinoline-8-carboxamide], the pIC50 in test [1] is 6.30; in test [2] it was 8.05. In addition, the Selectivity in test [2] stood at 56.

As for `Cc1cc2nc(N)c3cnn(C)c3c2cc1C(=O)N(C)[C@@H]1COc2cc(C#Cc3cnn(C(F)F)c3)ccc21` [Compound 83A], the pIC50 in test [1] was 7.21. Besides, in test [2], the Selectivity amounted to 62 and the pIC50 is 9.00.

Turning to `CN(C(=O)c1cc2c(cc1F)nc(N)c1cnn(C)c12)C1COc2cc(C#Cc3cnccc3C(F)F)ccc21` (stereo not drawn) [Compound 42, 4-amino-N-(6-((4-(difluoromethyl)pyridin-3-yl)ethynyl)-2,3-dihydrobenzofuran-3-yl)-7-fluoro-N,1-dimethyl-1H-pyrazolo[4,3-c]quinoline-8-carboxamide], the pIC50 in test [1] was 6.11. Moreover, in test [2], the Selectivity turned out to be 42 and the pIC50 is 7.73.

With `CN(C(=O)c1cc2c3c(c(N)nc2cc1Cl)COC3)[C@@H]1COc2cc(C#Cc3cnn(C4CCC4)c3)ccc21` [Compound 90A, (S)-4-amino-7-chloro-N-(6-((1-cyclobutyl-1H-pyrazol-4-yl)ethynyl)-2,3-dihydrobenzofuran-3-yl)-N-methyl-1,3-dihydrofuro[3,4-c]quinoline-8-carboxamide], the pIC50 is 5.93 in test [1] and 7.92 in test [2]. Also, in test [2], the Selectivity came to 98.

Consider `CCn1cc(C#Cc2ccc3c(c2)OCC3N(C)C(=O)c2cc3c(cc2F)nc(N)c2cnn(C)c23)cn1` (stereo not drawn) [Compound 17, 4-amino-N-(6-((1-ethyl-1H-pyrazol-4-yl)ethynyl)-2,3-dihydrobenzofuran-3-yl)-7-f luoro-N,1-dimethyl-1H-pyrazolo[4,3-c]quinoline-8-carboxamide], for which, in test [1], the pIC50 was 6.39. In test [2], the Selectivity was determined as 58 and the pIC50 is 8.15.

As for `Cc1cc2nc(N)c3cnn(C)c3c2cc1C(=O)N(C)[C@@H]1COc2cc(C#Cc3cnn(C)c3)ccc21` [Compound 10A, (S)-4-amino-N,1,7-trimethyl-N-(6-((1-methyl-1H-pyrazol-4-yl)ethynyl)-2,3-dihydrobenzofuran-3-yl)-1H-pyrazolo[4,3-c]quinoline-8-carboxamide], in test [1], the pIC50 is 7.55. Besides, in test [2], the Selectivity was determined as 56 and the pIC50 was 9.30.

Turning to `Cc1nn(C)cc1C#Cc1ccc2c(c1)OCC2N(C)C(=O)c1cc2c(cc1F)nc(N)c1cnn(C)c12` (stereo not drawn) [Compound 25, 4-amino-N-(6-((1,3-dimethyl-1H-pyrazol-4-yl)ethynyl)-2,3-dihydrobenzofuran-3-yl)-7-fluoro-N,1-dimethyl-1H-pyrazolo[4,3-c]quinoline-8-carboxamide], in test [1], the pIC50 is 6.33. Also, in test [2], the Selectivity is on record as 100 and the pIC50 was 8.33.

In the case of `CN(C(=O)c1cc2c3c(c(N)nc2cc1Cl)COC3)[C@@H]1COc2cc(C#Cc3cn(C)nc3Cl)ccc21` [Compound 68A, (S)-4-amino-7-chloro-N-(6-((3-chloro-1-methyl-1H-pyrazol-4-yl)ethynyl)-2,3-dihydrobenzofuran-3-yl)-N-methyl-1,3-dihydrofuro[3,4-c]quinoline-8-carboxamide], the pIC50 in test [1] is 6.51. In test [2], the Selectivity was found to be 47 and the pIC50 was 8.18.

(Values after patent publication EP4755886A1 (Chengdu Chipscreen Pharmaceutical Ltd., priority 2023, dated 2025).)
